As a reminder, the IC50 is the point on the concentration scale where inhibition reaches its midpoint.

Data on 17 compounds can be found in US9493448B2, “Cycloalkane derivatives” (Daiichi Sankyo Company, Limited, priority 2012, dated 2016).

In test [1] the target is hNav 1.7 (Homo sapiens (Human), UniProt Q15858). Briefly: Electrophysiological evaluation, automated patch clamp IonWorks Quattro (Population Patch Clamp mode). The format is cell-based. As to conditions: HEK293A cells stably expressing hNav 1.7/β1/β2; response to second depolarization pulse, pre-pulse potential set to V1/2; read-out: hNav1.7 IC50. A general note: In patch-clamp work, channel activity is measured electrically.

Test [2] has as its system mice and rats affected by thermal hyperalgesia. Nature of the test: Thermal hyperalgesia assay.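 Note: measurement times set by the study director and not disclosed.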 As to conditions: oral administration, constant dose, against the vehicle treatment group; latency to escape behaviors after thermal stimulation of hind paw. Type of test: in vivo.

Sequence of hNav 1.7 (Q15858 whole entry): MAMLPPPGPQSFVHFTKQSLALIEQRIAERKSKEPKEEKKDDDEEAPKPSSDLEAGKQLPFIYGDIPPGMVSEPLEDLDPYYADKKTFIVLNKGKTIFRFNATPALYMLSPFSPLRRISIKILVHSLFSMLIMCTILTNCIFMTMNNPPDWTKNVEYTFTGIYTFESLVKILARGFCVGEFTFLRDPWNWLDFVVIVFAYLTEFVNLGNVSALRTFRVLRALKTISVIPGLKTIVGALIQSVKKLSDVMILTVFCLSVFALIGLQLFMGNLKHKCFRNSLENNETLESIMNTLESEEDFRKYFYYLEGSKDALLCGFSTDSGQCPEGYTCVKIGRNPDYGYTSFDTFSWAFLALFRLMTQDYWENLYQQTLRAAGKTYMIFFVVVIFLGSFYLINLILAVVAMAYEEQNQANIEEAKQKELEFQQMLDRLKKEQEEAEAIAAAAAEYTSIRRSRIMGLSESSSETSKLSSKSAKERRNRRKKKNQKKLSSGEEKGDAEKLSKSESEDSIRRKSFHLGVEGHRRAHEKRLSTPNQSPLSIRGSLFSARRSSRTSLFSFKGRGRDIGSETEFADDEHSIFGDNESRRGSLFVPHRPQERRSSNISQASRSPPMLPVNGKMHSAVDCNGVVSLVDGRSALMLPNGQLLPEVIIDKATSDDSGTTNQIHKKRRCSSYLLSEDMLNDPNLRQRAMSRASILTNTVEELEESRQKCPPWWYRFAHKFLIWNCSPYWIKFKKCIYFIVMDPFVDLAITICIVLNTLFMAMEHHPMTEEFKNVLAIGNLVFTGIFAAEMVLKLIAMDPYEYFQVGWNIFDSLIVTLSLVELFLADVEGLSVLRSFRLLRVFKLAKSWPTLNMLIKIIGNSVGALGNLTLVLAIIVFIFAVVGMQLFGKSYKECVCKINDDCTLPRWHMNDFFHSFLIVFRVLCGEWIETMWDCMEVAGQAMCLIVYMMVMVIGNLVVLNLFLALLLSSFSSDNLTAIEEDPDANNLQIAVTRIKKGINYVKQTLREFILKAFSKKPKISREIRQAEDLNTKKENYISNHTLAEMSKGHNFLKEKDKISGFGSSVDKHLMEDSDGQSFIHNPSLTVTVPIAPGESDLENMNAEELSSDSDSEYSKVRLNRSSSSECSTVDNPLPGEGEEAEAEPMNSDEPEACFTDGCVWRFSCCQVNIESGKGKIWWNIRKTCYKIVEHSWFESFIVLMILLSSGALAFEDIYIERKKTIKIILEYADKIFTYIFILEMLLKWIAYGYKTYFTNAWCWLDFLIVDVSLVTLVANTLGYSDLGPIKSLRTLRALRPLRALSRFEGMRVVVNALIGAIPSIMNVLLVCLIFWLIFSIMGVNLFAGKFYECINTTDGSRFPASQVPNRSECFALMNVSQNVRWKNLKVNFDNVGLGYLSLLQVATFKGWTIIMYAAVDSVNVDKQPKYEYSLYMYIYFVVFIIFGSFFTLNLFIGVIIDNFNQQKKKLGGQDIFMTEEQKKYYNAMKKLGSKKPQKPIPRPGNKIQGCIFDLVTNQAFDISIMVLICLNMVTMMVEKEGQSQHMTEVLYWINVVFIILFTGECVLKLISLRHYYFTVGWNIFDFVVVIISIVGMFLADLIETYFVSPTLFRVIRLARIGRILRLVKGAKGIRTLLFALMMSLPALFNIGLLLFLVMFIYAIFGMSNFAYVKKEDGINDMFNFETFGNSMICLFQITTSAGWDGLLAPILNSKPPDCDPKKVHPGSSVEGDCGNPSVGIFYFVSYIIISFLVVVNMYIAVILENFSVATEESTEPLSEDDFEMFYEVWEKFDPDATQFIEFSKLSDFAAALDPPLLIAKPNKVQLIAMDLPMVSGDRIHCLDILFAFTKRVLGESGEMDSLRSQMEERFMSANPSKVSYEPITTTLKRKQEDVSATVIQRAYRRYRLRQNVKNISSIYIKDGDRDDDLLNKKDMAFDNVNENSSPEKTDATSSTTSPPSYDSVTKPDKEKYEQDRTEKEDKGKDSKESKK
Sequence of hNav 1.7 (Q07699 19-218 partner): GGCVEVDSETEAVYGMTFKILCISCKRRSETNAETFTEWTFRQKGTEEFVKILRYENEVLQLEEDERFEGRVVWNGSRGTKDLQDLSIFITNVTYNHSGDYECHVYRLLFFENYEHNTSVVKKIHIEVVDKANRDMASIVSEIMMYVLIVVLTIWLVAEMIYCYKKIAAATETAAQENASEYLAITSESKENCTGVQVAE
Sequence of hNav 1.7 (O60939 30-215 partner): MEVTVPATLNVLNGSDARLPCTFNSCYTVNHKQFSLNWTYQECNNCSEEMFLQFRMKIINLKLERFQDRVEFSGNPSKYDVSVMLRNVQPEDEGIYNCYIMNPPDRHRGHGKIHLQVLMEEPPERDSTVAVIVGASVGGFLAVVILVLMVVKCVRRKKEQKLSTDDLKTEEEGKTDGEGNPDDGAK

For the compound `Cn1nccc1[C@H]1C[C@H](OCc2ccccc2)C[C@@H]1Oc1cc(F)c(S(=O)(=O)Nc2ccncn2)cc1F` (relative stereo) [Example 98, 4-{[(1S*,2R*,4S*)-4-(Benzyloxy)-2-(1-methyl-1H-pyrazol-5-yl)cyclopentyl]oxy}-2,5-difluoro-N-(pyrimidin-4-yl)benzenesulfonamide], in test [1], the IC50 came to 46 nM. In addition, in test [2], the “Ratio of improving pain score (%)” value is recorded as “C (“C” when the rate was 0 to 30%)”.

As to `Cn1nccc1[C@H]1CCCCC[C@@H]1Oc1cc(F)c(S(=O)(=O)Nc2ccncn2)cc1F` (relative stereo) [Example 42, 2,5-Difluoro-4-{[(1S*,2R*)-2-(1-methyl-1H-pyrazol-5-yl)cycloheptyl]oxy}-N-(pyrimidin-4-yl)benzenesulfonamide], the IC50 in test [1] was 91 nM. The “Ratio of improving pain score (%)” value in test [2] is on record as “C (“C” when the rate was 0 to 30%)”.

For the compound `Cn1nccc1[C@H]1CCCC[C@@H]1Oc1cc(F)c(S(=O)(=O)Nc2nncs2)cc1Cl` (relative stereo) [Example 86, 5-Chloro-2-fluoro-4-{[(1S*,2R*)-2-(1-methyl-1H-pyrazol-5-yl)cyclohexyl]oxy}-N-(1,3,4-thiadiazol-2-yl)benzenesulfonamide], the IC50 in test [1] came to 36 nM. Further, in test [2], the “Ratio of improving pain score (%)” value is “A (“A” when the rate was 61 to 100%)”.

On to `Cc1cc(S(=O)(=O)Nc2ccncn2)ccc1O[C@H]1CCCC[C@@H]1c1ccnn1C` (relative stereo) [Example 54, 3-Methyl-4-{[(1S*,2R*)-2-(1-methyl-1H-pyrazol-5-yl)cyclohexyl]oxy}-N-(pyrimidin-4-yl)benzenesulfonamide], for which, in test [1], the IC50 was found to be 39 nM. The “Ratio of improving pain score (%)” value in test [2] is given as “C (“C” when the rate was 0 to 30%)”.

For `Cc1cc(S(=O)(=O)Nc2ccncn2)c(F)cc1O[C@H]1CC(F)(F)CC[C@@H]1c1cn[nH]c1` (relative stereo) [Example 127, 4-{[(1S*,2R*)-5,5-Difluoro-2-(1H-pyrazol-4-yl)cyclohexyl]oxy}-2-fluoro-5-methyl-N-(pyrimidin-4-yl)benzenesulfonamide], the IC50 in test [1] is 120 nM. Further, the “Ratio of improving pain score (%)” value in test [2] is “A (“A” when the rate was 61 to 100%)”.

As for `Nc1cc([C@H]2CCCC[C@@H]2Oc2cc(F)c(S(=O)(=O)Nc3ccncn3)cc2F)ccn1` (relative stereo) [Example 35, 4-{[(1S*,2R*)-2-(2-Aminopyridin-4-yl)cyclohexyl]oxy}-2,5-difluoro-N-(pyrimidin-4-yl)benzenesulfonamide], the IC50 in test [1] worked out at 99 nM. Further, the “Ratio of improving pain score (%)” value in test [2] is reported as “B (“B” when the rate was 31 to 60%)”.

As to `CCn1nccc1[C@H]1CCCC[C@@H]1Oc1cc(F)c(S(=O)(=O)Nc2ccncn2)c(F)c1` (relative stereo) [Example 59, 4-{[(1S*,2R*)-2-(1-Ethyl-1H-pyrazol-5-yl)cyclohexyl]oxy}-2,6-difluoro-N-(pyrimidin-4-yl)benzenesulfonamide], the IC50 in test [1] stood at 31 nM. Also, the “Ratio of improving pain score (%)” value in test [2] is given as “C (“C” when the rate was 0 to 30%)”.

As to `Cn1nccc1[C@H]1CCC(F)(F)C[C@@H]1Oc1cc(F)c(S(=O)(=O)Nc2ccncn2)cc1F` (relative stereo) [Example 47, 4-{[(1S*,2R*)-5,5-Difluoro-2-(1-methyl-1H-pyrazol-5-yl)cyclohexyl]oxy}-2,5-difluoro-N-(pyrimidin-4-yl)benzenesulfonamide], the IC50 in test [1] was found to be 120 nM. In test [2], the “Ratio of improving pain score (%)” value was “A (“A” when the rate was 61 to 100%)”.

With `Cn1nccc1[C@H]1CCCCC[C@@H]1Oc1ccc(S(=O)(=O)Nc2ccncn2)c(F)c1F` (relative stereo) [Example 51, 2,3-Difluoro-4-{[(1S*,2R*)-2-(1-methyl-1H-pyrazol-5-yl)cycloheptyl]oxy}-N-(pyrimidin-4-yl)benzenesulfonamide], the IC50 in test [1] came out at 750 nM. The “Ratio of improving pain score (%)” value in test [2] is reported as “B (“B” when the rate was 31 to 60%)”.

`Cn1nccc1[C@H]1CC(F)(F)C[C@@H]1Oc1cc(F)c(S(=O)(=O)Nc2ccncn2)c(F)c1` (relative stereo) [Example 135, 4-{[(1S*,2R*)-4,4-Difluoro-2-(1-methyl-1H-pyrazol-5-yl)cyclopentyl]oxy}-2,6-difluoro-N-(pyrimidin-4-yl)benzenesulfonamide]: the IC50 in test [1] was found to be 51 nM. Moreover, the “Ratio of improving pain score (%)” value in test [2] is reported as “B (“B” when the rate was 31 to 60%)”.

On to `Cn1nccc1[C@H]1CC(F)(F)CC[C@@H]1Oc1cc(F)c(S(=O)(=O)Nc2ccncn2)c(F)c1` (relative stereo) [Example 129, 4-{[(1S*,2R*)-4,4-Difluoro-2-(1-methyl-1H-pyrazol-5-yl)cyclohexyl]oxy}-2,6-difluoro-N-(pyrimidin-4-yl)benzenesulfonamide], for which the IC50 in test [1] is 100 nM. Besides, in test [2], the “Ratio of improving pain score (%)” value is reported as “C (“C” when the rate was 0 to 30%)”.

Turning to `O=S(=O)(Nc1ccncn1)c1c(F)cc(O[C@H]2CCCC[C@@H]2c2cn[nH]c2)cc1F` (relative stereo) [Example 94, 2,6-Difluoro-4-{[(1S*,2R*)-2-(1H-pyrazol-4-yl)cyclohexyl]oxy}-N-(pyrimidin-4-yl)benzenesulfonamide], in test [1], the IC50 came to 120 nM. Besides, the “Ratio of improving pain score (%)” value in test [2] is reported as “A (“A” when the rate was 61 to 100%)”.

Regarding `Cn1nccc1[C@H]1CCC(F)(F)C[C@@H]1Oc1cc(F)c(S(=O)(=O)Nc2ccncn2)c(F)c1` (relative stereo) [Example 109, 4-{[(1S*,2R*)-5,5-Difluoro-2-(1-methyl-1H-pyrazol-5-yl)cyclohexyl]oxy}-2,6-difluoro-N-(pyrimidin-4-yl)benzenesulfonamide], in test [1], the IC50 is 50 nM. The “Ratio of improving pain score (%)” value in test [2] is given as “B (“B” when the rate was 31 to 60%)”.

With `O=S(=O)(Nc1ccncn1)c1ccc(O[C@H]2CCCC[C@@H]2c2cn[nH]c2)cc1F` (relative stereo) [Example 108, 2-Fluoro-4-{[(1S*,2R*)-2-(1H-pyrazol-4-yl)cyclohexyl]oxy}-N-(pyrimidin-4-yl)benzenesulfonamide], the IC50 in test [1] is 1700 nM. Moreover, the “Ratio of improving pain score (%)” value in test [2] is on record as “A (“A” when the rate was 61 to 100%)”.

In the case of `Cn1nccc1[C@H]1CCCCC[C@@H]1Oc1ccc(S(=O)(=O)Nc2ccncn2)c(F)c1` (relative stereo) [Example 58, 2-Fluoro-4-{[(1S*,2R*)-2-(1-methyl-1H-pyrazol-5-yl)cycloheptyl]oxy}-N-(pyrimidin-4-yl)benzenesulfonamide], in test [1], the IC50 amounted to 660 nM. The “Ratio of improving pain score (%)” value in test [2] is “B (“B” when the rate was 31 to 60%)”.

`Cc1cc(S(=O)(=O)Nc2ccncn2)c(F)cc1O[C@H]1CCC(F)(F)C[C@@H]1c1ccnn1C` (relative stereo) [Example 126, 4-{[(1S*,2R*)-4,4-Difluoro-2-(1-methyl-1H-pyrazol-5-yl)cyclohexyl]oxy}-2-fluoro-5-methyl-N-(pyrimidin-4-yl)benzenesulfonamide]: the IC50 in test [1] is 14 nM. Also, in test [2], the “Ratio of improving pain score (%)” value is “C (“C” when the rate was 0 to 30%)”.

Turning to `CCn1nccc1[C@H]1CCC[C@@H]1Oc1cc(F)c(S(=O)(=O)Nc2ccncn2)c(F)c1` (relative stereo) [Example 50, 4-{[(1S*,2R*)-2-(1-Ethyl-1H-pyrazol-5-yl)cyclopentyl]oxy}-2,6-difluoro-N-(pyrimidin-4-yl)benzenesulfonamide], the IC50 in test [1] was 47 nM. Further, the “Ratio of improving pain score (%)” value in test [2] is “B (“B” when the rate was 31 to 60%)”.
